Source: US20220347171A1, “TREATMENT OF PRURIGO NODULARIS” (TREVI THERAPEUTICS, INC., priority 2016, published 2022)
Structures can show the parent of a compound that is named as a salt.

System: prurigo nodularis patients
Assay: TR03ext (Example 3), titrated 30 mg QD to 180 mg BID: itchy Verbal Rating Scale (VRS)
Assay type: in vivo, human
Conditions: for VRS Itch Visit Mean (SD): Baseline 2.7 (0.8)
Source text: This clinical study was a Phase 2 Open Label Extension Study (clinical study TR03ext) of the randomized, double-blind, 3-parallel arm, placebo controlled dose ranging study described in Example 2. All those subjects who were randomized, and then completed Example 2 study, were eligible to participate in the Extension Study.
The primary endpoint was a description of the overall incidence and nature of Treatment-Emergent AEs (TEAES) during weeks 5-50 of the study. Exploratory efficacy endpoints included Change from Baseline patient reported outcome measures of Worst itch NRS, itchy VRS and ItchyQoL, by Treatment Period study visit and Baseline NRS score. There was also an assessment of any potential skin lesion changes over time using the metrics of the PAS.
Of the 63 patients that were randomized to the study of Example 2, 36 subjects who enrolled into Extension Study entered the Treatment Period of the study and were exposed to nalbuphine HCl ER tablet administration and are the basis of the study safety population analysis.
Patients in Extension Study were titrated over a dose range of 30 mg QD to 180 mg BID based on tolerability. The selected dose range was based on Example 2 study whereby patients were titrated from a 30 mg QD dose either to 30 mg BID, 60 mg BID, 90 mg BID, 120 mg BID or a 180 mg BID dose. The highest dose proposed was 180 mg BID (360 mg daily dose), and was well below the highest recommended daily treatment of 160 mg IV (equivalent to 960 mg oral) for the current marketed parenteral administered product.
The study duration for each patient was up to 52 weeks, with up to 50 weeks on study drug. The Extension Study consisted of a Treatment Period (that was followed by a Washout Safety Follow-up Period) and an Observation Period. Patients either entered directly into a drug Treatment Period (NRS >5) or a no-drug Observation Period (NRS ≤5) based on their reported NRS scores on the first Visit (Visit 1a). For up to 12 Extended Screening weeks, patients in the no-drug Observation Period could have also transitioned into the drug Treatment Period if their NRS increased to NRS >5. All patients entering the Treatment Period, whether immediately upon study entry or following a period of time in the Observation Period, were titrated to a dose ranging between 30 mg up to 180 mg BID, the highest dose tested in Example 2.

[1] = Patients With At Least 6 Months of Treatment N = 18
[2] = Patients With At Least 9 Months of Treatment N = 15

## Oc1ccc2c3c1OC1[C@@H](O)CC[C@@]4(O)[C@@H](C2)N(CC2CCC2)CC[C@]314 (stereo partly drawn) [Nalbuphine, 17-(cyclobutylmethyl)-4,5α-epoxymorphinian-3, 6α, 14-triol, hydrochloride]
All Patients N = 36
  VRS Itch Improvement Category 1 Grade Better, baseline to last observed value, patients (%): 16 (44.4%)
  VRS Itch Improvement Category 1 Grade Worse, baseline to last observed value, patients (%): 0
  VRS Itch Improvement Category 2-4 Grades Worse, baseline to last observed value, patients (%): 0
  VRS Itch Improvement Category 2 Grades Better, baseline to last observed value, patients (%): 9 (25.0%)
  VRS Itch Improvement Category 3 Grades Better, baseline to last observed value, patients (%): 1 (2.8%)
  VRS Itch Improvement Category 4 Grades Better, baseline to last observed value, patients (%): 0
  VRS Itch Improvement Category No Change, baseline to last observed value, patients (%): 3 (8.3%)
Completers N = 14
  VRS Itch Improvement Category 1 Grade Better, baseline to last observed value, patients (%): 5 (35.7%)
  VRS Itch Improvement Category 1 Grade Worse, baseline to last observed value, patients (%): 0
  VRS Itch Improvement Category 2-4 Grades Worse, baseline to last observed value, patients (%): 0
  VRS Itch Improvement Category 2 Grades Better, baseline to last observed value, patients (%): 7 (50.0%)
  VRS Itch Improvement Category 3 Grades Better, baseline to last observed value, patients (%): 0
  VRS Itch Improvement Category 4 Grades Better, baseline to last observed value, patients (%): 0
  VRS Itch Improvement Category No Change, baseline to last observed value, patients (%): 2 (14.3%)
[1]
  VRS Itch Improvement Category 1 Grade Better, baseline to last observed value, patients (%): 6 (33.3%)
  VRS Itch Improvement Category 1 Grade Worse, baseline to last observed value, patients (%): 0
  VRS Itch Improvement Category 2-4 Grades Worse, baseline to last observed value, patients (%): 0
  VRS Itch Improvement Category 2 Grades Better, baseline to last observed value, patients (%): 9 (50.0%)
  VRS Itch Improvement Category 3 Grades Better, baseline to last observed value, patients (%): 1 (5.6%)
  VRS Itch Improvement Category 4 Grades Better, baseline to last observed value, patients (%): 0
  VRS Itch Improvement Category No Change, baseline to last observed value, patients (%): 2 (11.1%)
[2]
  VRS Itch Improvement Category 1 Grade Better, baseline to last observed value, patients (%): 6 (40.0%)
  VRS Itch Improvement Category 1 Grade Worse, baseline to last observed value, patients (%): 0
  VRS Itch Improvement Category 2-4 Grades Worse, baseline to last observed value, patients (%): 0
  VRS Itch Improvement Category 2 Grades Better, baseline to last observed value, patients (%): 7 (46.7%)
  VRS Itch Improvement Category 3 Grades Better, baseline to last observed value, patients (%): 0
  VRS Itch Improvement Category 4 Grades Better, baseline to last observed value, patients (%): 0
  VRS Itch Improvement Category No Change, baseline to last observed value, patients (%): 2 (13.3%)
Study Week 3, N=34
  VRS Itch Mean (SD) Change from Baseline: −0.6 (0.9)
  VRS Itch Visit Mean (SD): 2.1 (1.1)
Study Week 5, N=33
  VRS Itch Mean (SD) Change from Baseline: −0.9 (1.0)
  VRS Itch Visit Mean (SD): 1.8 (1.0)
Study Week 9, N=30
  VRS Itch Mean (SD) Change from Baseline: −0.9 (0.8)
  VRS Itch Visit Mean (SD): 1.7 (0.9)
Study Week 13, N=25
  VRS Itch Mean (SD) Change from Baseline: −1.1 (0.8)
  VRS Itch Visit Mean (SD): 1.5 (0.8)
Study Week 17, N=25
  VRS Itch Mean (SD) Change from Baseline: −1.2 (1.2)
  VRS Itch Visit Mean (SD): 1.4 (1.0)
Study Week 21, N=22
  VRS Itch Mean (SD) Change from Baseline: −1.2 (0.8)
  VRS Itch Visit Mean (SD): 1.4 (0.7)
Study Week 26, N=21
  VRS Itch Mean (SD) Change from Baseline: −1.2 (0.9)
  VRS Itch Visit Mean (SD): 1.4 (0.9)
Study Week 30, N=20
  VRS Itch Mean (SD) Change from Baseline: −1.5 (0.8)
  VRS Itch Visit Mean (SD): 1.1 (0.8)
Study Week 34, N=18
  VRS Itch Mean (SD) Change from Baseline: −1.2 (0.8)
  VRS Itch Visit Mean (SD): 1.4 (0.6)
Study Week 38, N=17
  VRS Itch Mean (SD) Change from Baseline: −1.2 (0.7)
  VRS Itch Visit Mean (SD): 1.4 (0.6)
Study Week 42, N=17
  VRS Itch Mean (SD) Change from Baseline: −1.4 (0.6)
  VRS Itch Visit Mean (SD): 1.2 (0.6)
Study Week 46, N=17
  VRS Itch Mean (SD) Change from Baseline: −1.4 (0.6)
  VRS Itch Visit Mean (SD): 1.2 (0.7)
Study Week 50, N=15
  VRS Itch Mean (SD) Change from Baseline: −1.5 (0.7)
  VRS Itch Visit Mean (SD): 1.1 (0.6)
